Data taken from patent publication EP1342779A1, “Means and methods for manipulating hypersensitivity-like responses” (Fornix Biosciences N.V., priority 2002, dated 2003).

What was measured:
[1] = system: Ig light chain; experiment: Ig-LC-induced ear swelling after hapten challenge of mice passively sensitized with TNP-specific Ig-LC (inhibition by F991); format: in vivo
From the text: F991 is developed as an antagonist of Ig light chain. The working hypothesis for this compound is that it binds to Ig light chains and thereby prevents binding of light chains to their putative receptors. F991 is a 9-mer peptide derived from the endogenous protein uromodulin. The potency of F991 to inhibit Ig-LC induced cutaneous reactions (ear swelling responses) was studied. Our working hypothesis for this compound is that it is an antagonist of Ig-LC and binds to Ig-LC and thereby prevents binding of Ig-LC to their putative receptors. F991 was administered in different dosages, via various administration routes.
Indicated amounts of F991 per mouse were intravenously injected at 30 min before hapten challenge. At that same time point mice were injected (passively sensitized) with TNP-specific Ig-LC or vehicle (PBS). […]
Mice were i.v. sensitized with 2 µg TNP-specific Ig light chain at 30 min before ear challenge with TNP. Control mice were injected with PBS instead of Ig light chain. […]

[2] = system: myelin oligodendrocyte glycoprotein (MOG)-induced experimental allergic encephalomyelitis (EAE); experiment: MOG-induced experimental allergic encephalomyelitis (EAE), mouse model for MS; format: in vivo
From the text: If light chains were involved in the activation of mast cells in patients with MS, the prediction is that F991 may be of therapeutic interest in the treatment of MS. We tested if F991 was able to prevent of reduce development clinical signs in an established mouse model for MS, i.e. myelin oligodendrocyte glycoprotein (MOG)-induced experimental allergic encephalomyelitis (EAE). Mouse were sensitized with antigenic peptide 35-55 from MOG in complete freund adjuvant. At the day of sensitization and 3 days later, mice also received an injection with pertussis toxin. In general, 10-12 days after the start of sensitization mice develop clinical signs of MS, which can be scored in degree of paralysis (0=no paralysis, 1=tail flaccidity, 2=hind limb weakness, 3=hind limb paralysis, 4=forelimb paralysis or loss of ability to right supine, 5=death). To investigate if F991 is able to prevent development of clinical signs of MS, mice were daily injected with 50 µg F991/animal i.p. starting at day -1 until day 21. […] Control mice developed disease with a mean day of onset of 11.8 and a mean clinical score of 2.3. There was a significant difference in disease burden (mean cumulative EAE score) between the F991 (mean 4.2) treated group and the control group (mean 18.3). […] (Figure 17).

[3] = system: DNFB-sensitized mice; experiment: Contact sensitivity after active sensitization with DNFB, ear swelling; format: in vivo; conditions: F991 topically on the ears 4 hours before challenge
Protocol: • A. F991 was prepared as an ointment in Cremor Cetomacrogolis FNA and topically applied on the ear at 4 hours before hapten challenge. Subsequently, mice were passively sensitized with 2 µg TNP-specific Ig-LC n at 30 min before and ear thickness was measured 2 hours after hapten challenge of the ears. […] Therefore F991 was applied on the back of the mice instead of at the site of hapten challenge (ear). Mice were again sensitized and challenged as described above. […] This means that epicutaneous treatment should be done at the site of challenge (Figure 14). • C. Stability of F991 in ointment To determine the stability of F991 in ointment, different preparations of F991 in Cremor Cetamacrogolis FNA were tested for their activity after storage for 2-3 months at room temperature and at 4 degrees Celsius. The different preparations were applied at the ear as described in A. and subsequently ear swelling was monitored after hapten challenge of Ig-LC-sensitized animals. […] Mice were sensitized with a low molecular weight compound DNFB on the skin and footpads (on day 0 and 1). […]
Topical treatment of DNFB-sensitized mice at 4 hours before hapten challenge results in complete inhibition of the development of contact sensitivity response as determined by earswelling at 2 and 24 hours after challenge.

[4] = system: Ig light chain; experiment: Stability of F991 in ointment, read out as activity in the ear swelling test after storage; format: in vivo, mice; conditions: Cremor Cetamacrogolis FNA, stored 2-3 months at room temperature and at 4 degrees Celsius
Protocol: • A. F991 was prepared as an ointment in Cremor Cetomacrogolis FNA and topically applied on the ear at 4 hours before hapten challenge. Subsequently, mice were passively sensitized with 2 µg TNP-specific Ig-LC n at 30 min before and ear thickness was measured 2 hours after hapten challenge of the ears. […] Therefore F991 was applied on the back of the mice instead of at the site of hapten challenge (ear). Mice were again sensitized and challenged as described above. […] This means that epicutaneous treatment should be done at the site of challenge (Figure 14). • C. Stability of F991 in ointment To determine the stability of F991 in ointment, different preparations of F991 in Cremor Cetamacrogolis FNA were tested for their activity after storage for 2-3 months at room temperature and at 4 degrees Celsius. The different preparations were applied at the ear as described in A. and subsequently ear swelling was monitored after hapten challenge of Ig-LC-sensitized animals. […] Mice were sensitized with a low molecular weight compound DNFB on the skin and footpads (on day 0 and 1). 5 days after the start of sensitization and 4 hours before local challenge with hapten, mice were treated with F991 on the ears.

[5] = 50 µg F991/animal i.p. daily from day -1 until day 21

## F991: 9-mer peptide derived from the endogenous protein uromodulin, developed as an antagonist of Ig light chain; sequence probably AHWSGHCCL
[1]; 2 µg per mouse (1.9 nmole) i.v. 30 min before hapten challenge, 2 hours after challenge
  block of the Ig-LC -induced ear swelling: completely block
[1]; 50 µg F991 intraperitoneally at 4 or 24 hours before hapten challenge
  induction of an ear swelling response: completely prevented
[1]; 50 µg F991 subcutaneously at 4 or 24 hours before hapten challenge
  Ig-LC -induced ear swelling after hapten challenge: completely inhibited
[1]; F991 ointment applied on the back of the mice instead of the ear
  systemic inhibition of the Ig-LC effects: does not result in systemic inhibition
[1]; F991 ointment in Cremor Cetomacrogolis FNA applied on the ear 4 hours before hapten challenge, 2 hours after challenge
  inhibition of the ear swelling induced after hapten challenge: dose-dependent inhibition
[1]; different amounts of F991 i.v. 30 min before hapten challenge, ear thickness 2 hours after challenge
  inhibition of the ear swelling response: dose-dependent inhibition
[2]; [5]
  development of clinical signs of paralysis: completely prevented
  disease burden (mean cumulative EAE score): 4.2
[2]; termination of F991 at 21 days after sensitization
  clinical symptoms after termination of the treatment: some minor clinical symptoms
[3]; 2 hours after challenge
  ear swelling, contact sensitivity: completely inhibited
[3]; 24 hours after challenge
  ear swelling, contact sensitivity: completely inhibited
[4]
  stability of F991 in ointment (activity after storage): retained its activity
